Reference: US10927078B2, “Modulators of indoleamine 2,3-dioxygenase” (GLAXOSMITHKLINE INTELLECTUAL PROPERTY DEVELOPMENT LIMITED, priority 2017, dated 2021)
Where two headings read alike, the source gives them in different places.

Target: indoleamine 2, 3-dioxygenase (IDO1) (Homo sapiens, UniProt P14902)
Assay: PBMC IDO1 assay (kynurenine via mass spectrometry)
Format: cell-based
Description: Compounds of the present invention were tested via high-throughput cellular assays utilizing detection of kynurenine via mass spectrometry and cytotoxicity as end-points. For the mass spectrometry and cytotoxicity assays, human peripheral blood mononuclear cells (PBMC) (PB003F; AllCells®, Alameda, Calif.) were stimulated with human interferon-γ (IFN-γ) (Sigma-Aldrich Corporation, St. Louis, Mo.) and lipopolysaccharide from Salmonella minnesota (LPS) (Invivogen, San Diego, Calif.) to induce the expression of indoleamine 2, 3-dioxygenase (IDO1). Compounds with IDO1 inhibitory properties decreased the amount of kynurenine produced by the cells via the tryptophan catabolic pathway. Cellular toxicity due to the effect of compound treatment was measured using CellTiter-Glo® reagent (CTG) (Promega Corporation, Madison, Wis.), which is based on luminescent detection of ATP, an indicator of metabolically active cells.
In preparation for the assays, test compounds were serially diluted 3-fold in DMSO from a typical top concentration of 5 mM and plated at 0.5 μL in 384-well, polystyrene, clear bottom, tissue culture treated plates with lids (Greiner Bio-One, Kremsmünster, Austria) to generate 11-point dose response curves. Low control wells (0% kynurenine or 100% cytotoxicity) contained either 0.5 μL of DMSO in the presence of unstimulated (-IFN-γ/-LPS) PBMCs for the mass spectrometry assay or 0.5 μL of DMSO in the absence of cells for the cytotoxicity assay, and high control wells (100% kynurenine or 0% cytotoxicity) contained 0.5 μL of DMSO in the presence of stimulated (+IFN-γ/+LPS) PBMCs for both the mass spectrometry and cytotoxicity assays.
Frozen stocks of PBMCs were washed and recovered in RPMI 1640 medium (Thermo Fisher Scientific, Inc., Waltham, Mass.) supplemented with 10% v/v heat-inactivated fetal bovine serum (FBS) (Thermo Fisher Scientific, Inc., Waltham, Mass.), and 1× penicillin-streptomycin antibiotic solution (Thermo Fisher Scientific, Inc., Waltham, Mass.). The cells were diluted to 1,000,000 cells/mL in the supplemented RPMI 1640 medium. 50 μL of either the cell suspension, for the mass spectrometry assay, or medium alone, for the cytotoxicity assay, were added to the low control wells, on the previously prepared 384-well compound plates, resulting in 50,000 cells/well or 0 cells/well respectively. IFN-γ and LPS were added to the remaining cell suspension at final concentrations of 100 ng/ml and 50 ng/ml respectively, and 50 μL of the stimulated cells were added to all remaining wells on the 384-well compound plates. The plates, with lids, were then placed in a 37° C., 5% CO2 humidified incubator for 2 days.
Following incubation, the 384-well plates were removed from the incubator and allowed to equilibrate to room temperature for 30 minutes. For the cytotoxicity assay, CellTiter-Glo® was prepared according to the manufacturer's instructions, and 40 μL were added to each plate well. After a twenty minute incubation at room temperature, luminescence was read on an EnVision® Multilabel Reader (PerkinElmer Inc., Waltham, Mass.). For the mass spectrometry assay, 10 μL of supernatant from each well of the compound-treated plates were added to 40 μL of acetonitrile, containing 10 μM of an internal standard for normalization, in 384-well, polypropylene, V-bottom plates (Greiner Bio-One, Kremsmünster, Austria) to extract the organic analytes. Following centrifugation at 2000 rpm for 10 minutes, 10 μL from each well of the acetonitrile extraction plates were added to 90 μL of sterile, distilled H2O in 384-well, polypropylene, V-bottom plates for analysis of kynurenine and the internal standard on the RapidFire 300 (Agilent Technologies, Santa Clara, Calif.) and 4000 QTRAP MS (SCIEX, Framingham, Mass.). MS data were integrated using Agilent Technologies' RapidFire Integrator software, and data were normalized for analysis as a ratio of kynurenine to the internal standard. […]

[1] = human PBMC stimulated with IFN-γ and LPS, 2 days, kynurenine by mass spectrometry, recorded as pIC50, read-out: PBMC PXC50_ (converted)

indoleamine 2, 3-dioxygenase (IDO1), sequence (P14902 whole entry): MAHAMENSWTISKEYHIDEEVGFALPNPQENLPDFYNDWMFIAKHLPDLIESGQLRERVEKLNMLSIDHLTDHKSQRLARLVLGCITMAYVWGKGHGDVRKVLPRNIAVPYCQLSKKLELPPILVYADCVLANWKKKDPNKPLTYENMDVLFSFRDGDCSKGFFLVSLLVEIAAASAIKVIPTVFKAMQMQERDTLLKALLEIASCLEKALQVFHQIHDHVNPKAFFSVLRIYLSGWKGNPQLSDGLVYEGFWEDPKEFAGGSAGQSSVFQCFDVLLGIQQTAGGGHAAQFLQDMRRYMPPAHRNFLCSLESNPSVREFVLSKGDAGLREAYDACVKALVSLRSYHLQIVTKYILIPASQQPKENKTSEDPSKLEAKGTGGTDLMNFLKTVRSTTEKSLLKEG

| IC50 [1] [nM] | SMILES | IC50 [nM] |
| --- | --- | --- |
| 12.6 | Cc1ccc(C(=O)NC(C2CC2)C2CCN(C(=O)Oc3c(C)ncnc3C)CC2)s1 (stereo in doubt) [Example 113, (S)-4,6-dimethylpyrimidin-5-yl 4-(cyclopropyl(5-methylthiophene-2-carboxamido)methyl)piperidine-1-carboxylate] |  |
| 50.1 | O=C(NC(C1CC1)C1CCN(C(=O)Oc2cncnc2)CC1)c1ccc(Cl)s1 (stereo in doubt) [Example 115, (S)-pyrimidin-5-yl 4-((5-chlorothiophene-2-carboxamido)(cyclopropyl)methyl)piperidine-1-carboxylate] |  |
| 3.98 | CC(C)C[C@@H](NC(=O)c1ccc(Cl)cc1)C1CCN(C(=O)Oc2ccccc2)CC1 [Example 21, phenyl 4-[(1R)-1-[(4-chlorophenyl)formamido]-3-methylbutyl]piperidine-1-carboxylate] |  |
| 3.98 | O=C(N[C@H](C1CC1)C1CCN(C(=O)Oc2ccccc2)CC1)c1ccc(Cl)s1 [Example 23, phenyl 4-[(R)-[(5-chlorothiophen-2-yl)formamido](cyclopropyl)methyl]piperidine-1-carboxylate] |  |
| 5.01 | CC(C)C[C@@H](NC(=O)c1ccccc1)C1CCN(C(=O)Oc2ccccc2)CC1 [Example 25, phenyl 4-[(1R)-3-methyl-1-(phenylformamido)butyl]piperidine-1-carboxylate] |  |
| 5.01 | CC(C)CC(NC(=O)c1ccc(Cl)cc1)C1CCN(C(=O)Oc2ccccc2)CC1 (stereo not shown) [Example 26, phenyl 4-{1-[(4-chlorophenyl)formamido]-3-methylbutyl}piperidine-1-carboxylate] |  |
| 5.01 | CC(C)C[C@@H](NC(=O)c1ccc(F)cc1)C1CCN(C(=O)Oc2ccccc2)CC1 [Example 27, phenyl 4-[(1R)-1-[(4-fluorophenyl)formamido]-3-methylbutyl]piperidine-1-carboxylate] |  |
| 5.01 | Cc1cccc(OC(=O)N2CCC(C(CC(C)C)NC(=O)c3ccc(F)cc3)CC2)c1F (stereo not shown) [Example 28, 2-fluoro-3-methylphenyl 4-{1-[(4-fluorophenyl)formamido]-3-methylbutyl}piperidine-1-carboxylate] |  |
| 5.01 | Cc1cnccc1OC(=O)N1CCC(C(CC(C)C)NC(=O)c2ccc(Cl)cc2)CC1 (stereo not shown) [Example 29, 3-methylpyridin-4-yl 4-{1-[(4-chlorophenyl)formamido]-3-methylbutyl}piperidine-1-carboxylate] |  |

More lines, now with the values behind:

| SMILES | IC50 [1] [nM] | IC50 [nM] |
| --- | --- | --- |
| Cc1nccc(OC(=O)N2CCC([C@H](NC(=O)c3ccc(Cl)s3)c3ccccc3)CC2)c1C [Example 1, (S)-2,3-dimethylpyridin-4-yl 4-((5-chlorothiophene-2-carboxamido)(phenyl)methyl)piperidine-1-carboxylate] | 0.631 |  |
| Cc1ccnc(C)c1OC(=O)N1CCC(C(CC(C)C)NC(=O)c2ccc(Cl)cc2)CC1 (stereo not shown) [Example 3, 2,4-dimethylpyridin-3-yl 4-(1-(4-chlorobenzamido)-3-methylbutyl)piperidine-1-carboxylate] |  | 1 |
| CC(C)CC(NC(=O)c1ccc(Cl)cc1)C1CCN(C(=O)Oc2cccnc2C#N)CC1 (stereo not shown) [Example 5, 2-cyanopyridin-3-yl 4-{1-[(4-chlorophenyl)formamido]-3-methylbutyl}piperidine-1-carboxylate] |  | 1.58 |
| Cc1ncccc1OC(=O)N1CCC(C(CC(C)C)NC(=O)c2ccc(Cl)cc2)CC1 (stereo not shown) [Example 6, 2-methylpyridin-3-yl 4-{1-[(4-chlorophenyl)formamido]-3-methylbutyl}piperidine-1-carboxylate] |  | 1.58 |
| Cc1nccc(OC(=O)N2CCC([C@H](NC(=O)c3ccc(Cl)s3)C3CC3)CC2)c1C [Example 7, 2,3-dimethylpyridin-4-yl 4-[(R)-[(5-chlorothiophen-2-yl)formamido](cyclopropyl)methyl]piperidine-1-carboxylate] | 2 |  |
| CC(C)C[C@@H](NC(=O)c1ccc(Cl)s1)C1CCN(C(=O)Oc2ccccc2)CC1 [Example 8, phenyl 4-[(1R)-1-[(5-chlorothiophen-2-yl)formamido]-3-methylbutyl]piperidine-1-carboxylate] | 2 |  |
| Cc1c(F)cccc1OC(=O)N1CCC(C(CC(C)C)NC(=O)c2ccc(F)cc2)CC1 (stereo not shown) [Example 9, 3-fluoro-2-methylphenyl 4-{1-[(4-fluorophenyl)formamido]-3-methylbutyl}piperidine-1-carboxylate] | 2.51 |  |
| COc1ncccc1OC(=O)N1CCC(C(CC(C)C)NC(=O)c2ccc(Cl)cc2)CC1 (stereo not shown) [Example 10, 2-methoxypyridin-3-yl 4-{1-[(4-chlorophenyl)formamido]-3-methylbutyl}piperidine-1-carboxylate] |  | 2.51 |
| CC(C)CC(NC(=O)c1ccc(F)cc1)C1CCN(C(=O)Oc2cccc(F)c2Cl)CC1 (stereo not shown) [Example 11, 2-chloro-3-fluorophenyl 4-{1-[(4-fluorophenyl)formamido]-3-methylbutyl}piperidine-1-carboxylate] | 2.51 |  |
| CC(C)CC(NC(=O)c1ccc(F)cc1)C1CCN(C(=O)Oc2cccc(F)c2C#N)CC1 (stereo not shown) [Example 12, 2-cyano-3-fluorophenyl 4-{1-[(4-fluorophenyl)formamido]-3-methylbutyl}piperidine-1-carboxylate] | 2.51 |  |
| COc1c(F)cccc1OC(=O)N1CCC(C(CC(C)C)NC(=O)c2ccc(F)cc2)CC1 (stereo not shown) [Example 13, 3-fluoro-2-methoxyphenyl 4-{1-[(4-fluorophenyl)formamido]-3-methylbutyl}piperidine-1-carboxylate] | 2.51 |  |
| Cc1ncccc1OC(=O)N1CCC([C@H](NC(=O)c2ccc(Cl)cc2)c2ccccc2)CC1 [Example 14, 2-methylpyridin-3-yl 4-[(S)-[(4-chlorophenyl)formamido](phenyl)methyl]piperidine-1-carboxylate] |  | 2.51 |
| Cc1ncnc(C)c1OC(=O)N1CCC(C(CC(C)C)NC(=O)c2ccc(Cl)cc2)CC1 (stereo not shown) [Example 15, 4,6-dimethylpyrimidin-5-yl 4-{1-[(4-chlorophenyl)formamido]-3-methylbutyl}piperidine-1-carboxylate] | 2.51 |  |
| CC(C)CC(NC(=O)c1ccc(Cl)s1)C1CCN(C(=O)Oc2ccccc2)CC1 (stereo not shown) [Example 16, phenyl 4-{1-[(5-chlorothiophen-2-yl)formamido]-3-methylbutyl}piperidine-1-carboxylate] | 3.16 |  |
| Cc1ncccc1OC(=O)N1CCC(C(CC(C)C)NC(=O)c2ccc(F)cc2)CC1 (stereo not shown) [Example 18, 2-methylpyridin-3-yl 4-{1-[(4-fluorophenyl)formamido]-3-methylbutyl}piperidine-1-carboxylate] |  | 3.16 |
| Cc1c(F)cccc1OC(=O)N1CCC([C@H](NC(=O)c2ccc(Cl)s2)C2CC2)CC1 [Example 19, 3-fluoro-2-methylphenyl 4-[(R)-[(5-chlorothiophen-2-yl)formamido](cyclopropyl)methyl]piperidine-1-carboxylate] | 3.16 |  |
| Cc1nccc(OC(=O)N2CCC([C@H](NC(=O)c3ccc(Cl)cc3)c3ccccc3)CC2)c1C [Example 20, 2,3-dimethylpyridin-4-yl 4-[(S)-[(4-chlorophenyl)formamido](phenyl)methyl]piperidine-1-carboxylate] | 3.98 |  |
| CC(C)CC(NC(=O)c1ccc(F)cc1)C1CCN(C(=O)Oc2cccnc2F)CC1 (stereo not shown) [Example 22, 2-fluoropyridin-3-yl 4-{1-[(4-fluorophenyl)formamido]-3-methylbutyl}piperidine-1-carboxylate] |  | 3.98 |
| COc1ncccc1OC(=O)N1CCC(C(CC(C)C)NC(=O)c2ccc(F)cc2)CC1 (stereo not shown) [Example 30, 2-methoxypyridin-3-yl 4-{1-[(4-fluorophenyl)formamido]-3-methylbutyl}piperidine-1-carboxylate] |  | 5.01 |
